The results in this text go back to patent US10745382B2 (BRISTOL-MYERS SQUIBB COMPANY, priority 2015, dated 2020).

The structures appear in SMILES notation. Read-outs that look alike come from different tables or passages of the source.

This assay has as its target T1, PD-1/PD-L1 (Homo sapiens, UniProt Q9NZQ7).
T1 construct: made in house; host or cells: HEK293T
The experiment in a line: PD-1/PD-L1 Homogenous Time-Resolved Fluorescence (HTRF) binding assay. Conditions: PD-L1-His 10 nM, PD-1-Ig 20 nM, read-out: Range or IC50. In outline: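 Binding was measured by HTRF in dPBS with 0.1% BSA and 0.05% Tween-20. Detection used europium cryptate anti-Ig (1 nM final) and APC anti-His (20 nM final) added over the binding reaction.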
(In general: Time-resolved FRET reads energy transfer from a long-lived donor to a nearby acceptor.)

T1 sequence (Q9NZQ7 with tags, fused parts or gaps): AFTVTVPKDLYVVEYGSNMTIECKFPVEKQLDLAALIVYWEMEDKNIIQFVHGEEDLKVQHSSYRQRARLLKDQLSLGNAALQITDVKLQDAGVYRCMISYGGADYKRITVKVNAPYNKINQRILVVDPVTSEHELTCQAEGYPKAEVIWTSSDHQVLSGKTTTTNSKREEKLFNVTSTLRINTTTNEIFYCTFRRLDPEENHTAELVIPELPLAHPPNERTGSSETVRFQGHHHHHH

With `CCCC[C@H](NCc1cc(Cl)c(OCc2cccc(-c3cccc(OCCCN4CC[C@@H](O)C4)c3C)c2C)cc1OCc1cncc(C#N)c1)C(=O)O` [Example 4151, (S)-2-((5-chloro-2-((5-cyanopyridin-3-yl)methoxy)-4-((3′-(3-((R)-3-hydroxypyrrolidin-1-yl)propoxy)-2,2′-dimethyl-[1,1′-biphenyl]-3-yl)methoxy)benzyl)amino)hexanoic Acid], the half-inhibitory concentration (IC50) (value given as range class) is 0.21 to 10 nM.
Turning to `Cc1c(COc2cc(OCc3cncc(C#N)c3)c(CN[C@@H](Cc3ccccc3)C(=O)O)cc2Cl)cccc1-c1cccc(OCCCN2CC[C@@H](O)C2)c1C` [Example 4152, (5-chloro-2-((5-cyanopyridin-3-yl)methoxy)-4-((3′-(3-((R)-3-hydroxypyrrolidin-1-yl)propoxy)-2,2′-dimethyl-[1,1′-biphenyl]-3-yl)methoxy)benzyl)-L-phenylalanine], the half-inhibitory concentration (IC50) (value given as range class) lay in the range of 0.21 to 10 nM.
With `Cc1c(COc2cc(OCc3cncc(C#N)c3)c(CN[C@@H](CC(C)C)C(=O)O)cc2Cl)cccc1-c1cccc(OCCCN2CC[C@@H](O)C2)c1C` [Example 4153, (5-chloro-2-((5-cyanopyridin-3-yl)methoxy)-4-((3′-(3-((R)-3-hydroxypyrrolidin-1-yl)propoxy)-2,2′-dimethyl-[1,1′-biphenyl]-3-yl)methoxy)benzyl)-L-leucine], for the setting “value given as range class”, the IC50 was in the range of 0.21 to 10 nM.
On the same count and under the same terms, next, `CCC[C@H](NCc1cc(Cl)c(OCc2cccc(-c3cccc(OCCCN4CC[C@@H](O)C4)c3C)c2C)cc1OCc1cncc(C#N)c1)C(=O)O` [Example 4154, (S)-2-((5-chloro-2-((5-cyanopyridin-3-yl)methoxy)-4-((3′-(3-((R)-3-hydroxypyrrolidin-1-yl)propoxy)-2,2′-dimethyl-[1,1′-biphenyl]-3-yl)methoxy)benzyl)amino)pentanoic Acid]: 0.21 to 10 nM.
In the case of `C=CC[C@H](NCc1cc(Cl)c(OCc2cccc(-c3cccc(OCCCN4CC[C@@H](O)C4)c3C)c2C)cc1OCc1cncc(C#N)c1)C(=O)O` [Example 4155, (S)-2-((5-chloro-2-((5-cyanopyridin-3-yl)methoxy)-4-((3′-(3-((R)-3-hydroxypyrrolidin-1-yl)propoxy)-2,2′-dimethyl-[1,1′-biphenyl]-3-yl)methoxy)benzyl)amino)pent-4-enoic Acid], the concentration for half-maximal inhibition (IC50) (value given as range class) fell in the range of 0.21 to 10 nM.
As to `Cc1c(COc2cc(OCc3cncc(C#N)c3)c(CN[C@H](C(=O)O)c3ccccc3)cc2Cl)cccc1-c1cccc(OCCCN2CC[C@@H](O)C2)c1C` [Example 4156, (S)-2-((5-chloro-2-((5-cyanopyridin-3-yl)methoxy)-4-((3′-(3-((R)-3-hydroxypyrrolidin-1-yl)propoxy)-2,2′-dimethyl-[1,1′-biphenyl]-3-yl)methoxy)benzyl)amino)-2-phenylacetic Acid], the IC50 (value given as range class) fell in the range of 0.21 to 10 nM.
`Cc1c(COc2cc(OCc3cncc(C#N)c3)c(CN[C@@H](Cc3ccc(O)cc3)C(=O)O)cc2Cl)cccc1-c1cccc(OCCCN2CC[C@@H](O)C2)c1C` [Example 4157, (5-chloro-2-((5-cyanopyridin-3-yl)methoxy)-4-((3′-(3-((R)-3-hydroxypyrrolidin-1-yl)propoxy)-2,2′-dimethyl-[1,1′-biphenyl]-3-yl)methoxy)benzyl)-L-tyrosine]: the IC50 (numeric IC50) amounted to 3 nM.
For the compound `Cc1c(COc2cc(OCc3cc(Cl)cc(Cl)c3)c(CNC(CO)CO)cc2Cl)cccc1-c1cccc(OCCCN2CC[C@@H](O)C2)c1C` [Example 4501, (R)-2-((5-chloro-2-((3,5-dichlorobenzyl)oxy)-4-((3′-(3-(3-hydroxypyrrolidin-1-yl)propoxy)-2,2′-dimethyl-[1,1′-biphenyl]-3-yl)methoxy)benzyl)amino)propane-1,3-diol], for the setting “value given as range class”, the IC50 fell in the range of 0.21 to 10 nM.
Same read-out and setting: next, `Cc1c(COc2cc(OCc3cc(Cl)cc(Cl)c3)c(CNC(CO)(CO)CO)cc2Cl)cccc1-c1cccc(OCCCN2CC[C@@H](O)C2)c1C` [Example 4502, (R)-2-((5-chloro-2-((3,5-dichlorobenzyl)oxy)-4-((3′-(3-(3-hydroxypyrrolidin-1-yl)propoxy)-2,2′-dimethyl-[1,1′-biphenyl]-3-yl)methoxy)benzyl)amino)-2-(hydroxymethyl)propane-1,3-diol]: 0.21 to 10 nM.
Still for that read-out and setting: in the case of `Cc1c(COc2cc(OCc3cc(Cl)cc(Cl)c3)c(CN3CCCC[C@H]3C(=O)O)cc2Cl)cccc1-c1cccc(OCCCN2CC[C@@H](O)C2)c1C` [Example 4503, (S)-1-(5-chloro-2-((3,5-dichlorobenzyl)oxy)-4-((3′-(3-((R)-3-hydroxypyrrolidin-1-yl)propoxy)-2,2′-dimethyl-[1,1′-biphenyl]-3-yl)methoxy)benzyl)piperidine-2-carboxylic Acid] it was 0.21 to 10 nM; in that of `Cc1c(COc2cc(OCc3cc(Cl)cc(Cl)c3)c(CNC(C)(CO)CO)cc2Cl)cccc1-c1cccc(OCCCN2CC[C@@H](O)C2)c1C` [Example 4504, (R)-2-((5-chloro-2-((3,5-dichlorobenzyl)oxy)-4-((3′-(3-(3-hydroxypyrrolidin-1-yl)propoxy)-2,2′-dimethyl-[1,1′-biphenyl]-3-yl)methoxy)benzyl)amino)-2-methylpropane-1,3-diol], 0.21 to 10 nM.
Still for that read-out and setting: in the case of `Cc1ccc(COc2cc(OCc3cccc(-c4cccc(OCCCN5CC[C@@H](O)C5)c4C)c3C)c(Cl)cc2CNC(CO)CO)cc1C` [Example 4505, (R)-2-((5-chloro-2-((3,4-dimethylbenzyl)oxy)-4-((3′-(3-(3-hydroxypyrrolidin-1-yl)propoxy)-2,2′-dimethyl-[1,1′-biphenyl]-3-yl)methoxy)benzyl)amino)propane-1,3-diol] it was 0.21 to 10 nM.
`Cc1ccc(COc2cc(OCc3cccc(-c4cccc(OCCCN5CC[C@@H](O)C5)c4C)c3C)c(Cl)cc2CNC(C)(CO)CO)cc1C` [Example 4506, (R)-2-((5-chloro-2-((3,4-dimethylbenzyl)oxy)-4-((3′-(3-(3-hydroxypyrrolidin-1-yl)propoxy)-2,2′-dimethyl-[1,1′-biphenyl]-3-yl)methoxy)benzyl)amino)-2-methylpropane-1,3-diol]: the IC50 (numeric IC50) amounted to 3 nM.
For the compound `Cc1ccc(COc2cc(OCc3cccc(-c4cccc(OCCCN5CC[C@@H](O)C5)c4C)c3C)c(Cl)cc2CNC(CO)(CO)CO)cc1C` [Example 4507, (R)-2-((5-chloro-2-((3,4-dimethylbenzyl)oxy)-4-((3′-(3-(3-hydroxypyrrolidin-1-yl)propoxy)-2,2′-dimethyl-[1,1′-biphenyl]-3-yl)methoxy)benzyl)amino)-2-(hydroxymethyl)propane-1,3-diol], the IC50 (value given as range class) was 0.21 to 10 nM.
Still for that read-out and setting: next, `Cc1ccc(COc2cc(OCc3cccc(-c4cccc(OCCCN5CC[C@@H](O)C5)c4C)c3C)c(Cl)cc2CN2CCCC[C@H]2C(=O)O)cc1C` [Example 4508, (S)-1-(5-chloro-2-((3,4-dimethylbenzyl)oxy)-4-((3′-(3-((R)-3-hydroxypyrrolidin-1-yl)propoxy)-2,2′-dimethyl-[1,1′-biphenyl]-3-yl)methoxy)benzyl)piperidine-2-carboxylic Acid]: 0.21 to 10 nM.
On the same count and under the same terms, next, `Cc1c(COc2cc(OCc3ccc(F)c(F)c3)c(CNC(CO)CO)cc2Cl)cccc1-c1cccc(OCCCN2CC[C@@H](O)C2)c1C` [Example 4509, (R)-2-((5-chloro-2-((3,4-difluorobenzyl)oxy)-4-((3′-(3-(3-hydroxypyrrolidin-1-yl)propoxy)-2,2′-dimethyl-[1,1′-biphenyl]-3-yl)methoxy)benzyl)amino)propane-1,3-diol]: 0.21 to 10 nM.
On the same count and under the same terms, in the case of `Cc1c(COc2cc(OCc3ccc(F)c(F)c3)c(CNC(C)(CO)CO)cc2Cl)cccc1-c1cccc(OCCCN2CC[C@@H](O)C2)c1C` [Example 4510, (R)-2-((5-chloro-2-((3,4-difluorobenzyl)oxy)-4-((3′-(3-(3-hydroxypyrrolidin-1-yl)propoxy)-2,2′-dimethyl-[1,1′-biphenyl]-3-yl)methoxy)benzyl)amino)-2-methylpropane-1,3-diol] it was 10 to 100 nM.
In the case of `Cc1c(COc2cc(OCc3ccc(F)c(F)c3)c(CNC(CO)(CO)CO)cc2Cl)cccc1-c1cccc(OCCCN2CC[C@@H](O)C2)c1C` [Example 4511, (R)-2-((5-chloro-2-((3,4-difluorobenzyl)oxy)-4-((3′-(3-(3-hydroxypyrrolidin-1-yl)propoxy)-2,2′-dimethyl-[1,1′-biphenyl]-3-yl)methoxy)benzyl)amino)-2-(hydroxymethyl)propane-1,3-diol], under “value given as range class”, the IC50 was 0.21 to 10 nM.
The same measure, in the same setting: in the case of `Cc1c(COc2cc(OCc3ccc(F)c(F)c3)c(CN3CCCC[C@H]3C(=O)O)cc2Cl)cccc1-c1cccc(OCCCN2CC[C@@H](O)C2)c1C` [Example 4512, (S)-1-(5-chloro-2-((3,4-difluorobenzyl)oxy)-4-((3′-(3-((R)-3-hydroxypyrrolidin-1-yl)propoxy)-2,2′-dimethyl-[1,1′-biphenyl]-3-yl)methoxy)benzyl)piperidine-2-carboxylic Acid] it was 0.21 to 10 nM; in that of `Cc1cccc(C)c1COc1cc(OCc2cccc(-c3cccc(OCCCN4CC[C@@H](O)C4)c3C)c2C)c(Cl)cc1CNC(C)(CO)CO` [Example 4514, (R)-2-((5-chloro-2-((2,6-dimethylbenzyl)oxy)-4-((3′-(3-(3-hydroxypyrrolidin-1-yl)propoxy)-2,2′-dimethyl-[1,1′-biphenyl]-3-yl)methoxy)benzyl)amino)-2-methylpropane-1,3-diol], 100 to 2000 nM.
For `Cc1cccc(C)c1COc1cc(OCc2cccc(-c3cccc(OCCCN4CC[C@@H](O)C4)c3C)c2C)c(Cl)cc1CN1CCCC[C@H]1C(=O)O` [Example 4516, (S)-1-(5-chloro-2-((2,6-dimethylbenzyl)oxy)-4-((3′-(3-((R)-3-hydroxypyrrolidin-1-yl)propoxy)-2,2′-dimethyl-[1,1′-biphenyl]-3-yl)methoxy)benzyl)piperidine-2-carboxylic Acid], the IC50 (value given as range class) was 2010 to 10000 nM.

As usually defined, the IC50 is the concentration at which inhibition is half-maximal.
